Measurements: ChEMBL document CHEMBL1155239, “Structure-guided development of selective TbcatB inhibitors” (J Med Chem, 2009)

Legend:
BJ = assay: Cytotoxicity against human BJ cells after 72 hrs by alamar blue assay; format: ADME, cell-based
[1] = Inhibition of Trypanosoma brucei cathepsin B expressed in Pichia pastoris
Trypanosoma brucei = assay: Antitrypanosomal activity against Trypanosoma brucei after 48 hrs; format: functional, organism-based
HepG2 = assay: Cytotoxicity against human HepG2 cells after 72 hrs by alamar blue assay; format: ADME, cell-based; conditions: HepG2, 72 h
Raji = assay: Cytotoxicity against human Raji cells after 72 hrs by alamar blue assay; format: ADME, cell-based
HEK293 = assay: Cytotoxicity against human HEK293 cells after 72 hrs by alamar blue assay; format: ADME, cell-based; conditions: HEK293, 72 h
Procathepsin L = Procathepsin L (Homo sapiens, UniProt P07711); assay: Inhibition of human liver cathepsin L
Procathepsin L, sequence (P07711 whole entry): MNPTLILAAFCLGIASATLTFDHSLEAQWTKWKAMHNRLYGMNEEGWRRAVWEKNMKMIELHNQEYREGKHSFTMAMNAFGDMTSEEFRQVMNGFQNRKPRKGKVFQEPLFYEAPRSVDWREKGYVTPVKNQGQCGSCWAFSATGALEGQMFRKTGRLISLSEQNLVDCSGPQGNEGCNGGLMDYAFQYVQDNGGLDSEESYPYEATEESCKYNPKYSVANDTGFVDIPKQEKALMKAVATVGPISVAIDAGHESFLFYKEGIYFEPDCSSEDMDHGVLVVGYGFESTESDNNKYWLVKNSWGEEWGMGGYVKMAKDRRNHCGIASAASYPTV

Rhodesain = Rhodesain (Trypanosoma brucei rhodesiense, UniProt Q95PM0); assay: Inhibition of Trypanosoma brucei rhodesiense rhodesain
Rhodesain, sequence (Q95PM0 whole entry): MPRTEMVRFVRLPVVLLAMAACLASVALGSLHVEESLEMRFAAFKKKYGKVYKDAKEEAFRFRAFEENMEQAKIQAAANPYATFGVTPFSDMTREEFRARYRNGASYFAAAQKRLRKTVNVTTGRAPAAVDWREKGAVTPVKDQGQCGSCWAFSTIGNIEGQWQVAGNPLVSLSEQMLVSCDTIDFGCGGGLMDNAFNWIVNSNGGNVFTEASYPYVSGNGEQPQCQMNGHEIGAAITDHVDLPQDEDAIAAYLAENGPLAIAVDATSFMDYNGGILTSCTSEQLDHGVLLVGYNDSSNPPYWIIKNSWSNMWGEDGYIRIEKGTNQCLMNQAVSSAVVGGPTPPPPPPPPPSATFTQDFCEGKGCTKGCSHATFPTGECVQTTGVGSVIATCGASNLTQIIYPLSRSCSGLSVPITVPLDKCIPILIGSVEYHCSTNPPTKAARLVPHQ

Cathepsin B = Cathepsin B (Homo sapiens, UniProt P07858); assay: Inhibition of human liver cathepsin B

| Compound | EC50 (BJ) [nM] | IC50 [1] [nM] | EC50 (Trypanosoma brucei) [nM] | EC50 (HepG2) [nM] | EC50 (Raji) [nM] | EC50 (HEK293) [nM] | IC50 (Procathepsin L) [nM] | IC50 (Rhodesain) [nM] | IC50 (Cathepsin B) [nM] |
| --- | --- | --- | --- | --- | --- | --- | --- | --- | --- |
| N#Cc1nc(NCc2cccc(-c3cc(Cl)cc(Cl)c3)c2)c2ncn(CCCO)c2n1 | > 10000 | 1200 | 3300 | > 10000 | > 10000 | > 10000 | 900 | 1100 |  |
| N#Cc1nc(NCc2cccc(-c3ccc(Cl)c(Cl)c3)c2)c2ncn(CCCO)c2n1 | > 10000 | 1200 | 2300 | > 10000 | > 10000 | > 10000 | 1600 | 900 |  |
| CN(C)c1cccc(-c2cccc(CNc3nc(C#N)nc4c3ncn4CCCO)c2)c1 | > 10000 | 1200 |  | > 10000 | > 10000 | > 10000 | 1400 | 900 |  |
| COC(=O)c1cccc(-c2cccc(CNc3nc(C#N)nc4c3ncn4CCCO)c2)c1 | > 10000 |  | 2700 | > 10000 | > 10000 | > 10000 |  | 500 |  |
| C=Cc1cccc(-c2cccc(CNc3nc(C#N)nc4c3ncn4CCCO)c2)c1 | > 10000 | 800 |  | > 10000 | > 10000 | > 10000 |  |  |  |
| C=Cc1ccc(-c2cccc(CNc3nc(C#N)nc4c3ncn4CCCO)c2)cc1 | > 10000 | 900 |  | > 10000 | > 10000 | > 10000 | 1100 | 1800 |  |
| N#Cc1nc(NCc2cccc(-c3ccc4ccccc4c3)c2)c2ncn(CCCO)c2n1 | > 10000 | 230 | 1100 | > 10000 | > 10000 | > 10000 | 800 | 700 |  |
| N#Cc1nc(NCc2cccc(-c3ccco3)c2)c2ncn(CCCO)c2n1 | > 10000 | 1000 | 1600 | > 10000 | > 10000 | > 10000 | 840 | 310 |  |
| N#Cc1nc(NCc2cccc(-c3ccsc3)c2)c2ncn(CCCO)c2n1 | > 10000 | 370 | 430 | > 10000 | > 10000 | > 10000 | 480 | 240 |  |
| N#Cc1nc(NCc2cccc(-c3ccoc3)c2)c2ncn(CCCO)c2n1 | > 10000 | 460 | 560 | > 10000 | > 10000 | > 10000 | 600 | 30 |  |
| CC(C)Oc1c(Br)cccc1-c1cccc(CNc2nc(C#N)nc3c2ncn3CCCO)c1 | > 10000 | 900 |  | > 10000 | > 10000 | > 10000 | 1300 | 1500 | > 50000 |
| Cc1ccccc1-c1cccc(CNc2nc(C#N)nc3c2ncn3CCCO)c1 |  | 390 |  |  |  |  | 1100 | > 50000 |  |
| N#Cc1nc(NCc2cccc(-c3ccc(Cl)cc3)c2)c2ncn(CCCO)c2n1 |  |  |  |  |  |  | 1900 | 1400 |  |
| COc1ccc(-c2cccc(CNc3nc(C#N)nc4c3ncn4CCCO)c2)cc1 | > 10000 | 1200 |  | > 10000 | > 10000 | > 10000 | 1100 | 800 |  |
| N#Cc1nc(NCc2cccc(-c3ccccc3)c2)c2ncn(CCCO)c2n1 | > 10000 | 1800 | 1400 | > 10000 | > 10000 | > 10000 | 800 | 700 |  |
| N#Cc1nc(NCc2cccc(-c3cccnc3)c2)c2ncn(CCCO)c2n1 | > 10000 | 600 | 1400 | > 10000 | > 10000 | > 10000 | 1600 | 260 |  |

| Compound | EC50 (BJ) [nM] | IC50 [1] [nM] | EC50 (Trypanosoma brucei) [nM] | EC50 (HepG2) [nM] | EC50 (Raji) [nM] | EC50 (HEK293) [nM] | IC50 (Procathepsin L) [nM] | IC50 (Rhodesain) [nM] | IC50 (Cathepsin B) [nM] |
| --- | --- | --- | --- | --- | --- | --- | --- | --- | --- |
| N#Cc1nc(NCc2cccc(-c3cccs3)c2)c2ncn(CCCO)c2n1 | > 10000 | 600 |  | > 10000 | > 10000 | > 10000 | 900 | 800 |  |
| N#Cc1nc(NCc2cccc(-c3ccccc3Cl)c2)c2ncn(CCCO)c2n1 |  | 1300 |  |  |  |  | 16000 | 20000 |  |
| N#Cc1nc(NCc2cccc(-c3cccc(Cl)c3)c2)c2ncn(CCCO)c2n1 | > 10000 | 800 | 3700 | > 10000 | > 10000 | > 10000 | 700 | 1200 |  |
| N#Cc1nc(NCc2cccc(-c3c(F)c(F)c(F)c(F)c3F)c2)c2ncn(CCCO)c2n1 | > 10000 | 900 |  | > 10000 | > 10000 | > 10000 | 2700 | 5200 |  |
| N#Cc1nc(NCc2cccc(-c3ccc4[nH]ccc4c3)c2)c2ncn(CCCO)c2n1 | > 10000 | 250 | 380 | > 10000 | > 10000 | > 10000 | 190 | 500 |  |
| CC(C)c1ccccc1-c1cccc(CNc2nc(C#N)nc3c2ncn3CCCO)c1 |  | 310 | 630 |  |  |  | 900 |  |  |
| CC(=O)Nc1cccc(-c2cccc(CNc3nc(C#N)nc4c3ncn4CCCO)c2)c1 | > 10000 | 1600 | 4100 | > 10000 | > 10000 | > 10000 |  |  |  |
| COc1ncc(-c2cccc(CNc3nc(C#N)nc4c3ncn4CCCO)c2)c(OC)n1 | > 10000 | 2900 | 5900 | > 10000 | > 10000 | > 10000 | 6000 | 4000 | > 15000 |
| COC(=O)c1ccccc1-c1cccc(CNc2nc(C#N)nc3c2ncn3CCCO)c1 |  | 1000 | 700 |  |  |  | 1400 | > 10000 | > 15000 |
| N#Cc1nc(NCc2cccc(-c3ccccc3C(F)(F)F)c2)c2ncn(CCCO)c2n1 | > 10000 | 280 |  | > 10000 | > 10000 | > 10000 | 1500 | 8000 |  |
| COC(=O)c1ccc(-c2cccc(CNc3nc(C#N)nc4c3ncn4CCCO)c2)cc1 | > 10000 | 1600 | 4000 | > 10000 | > 10000 | > 10000 | 1800 | 1200 |  |
| N#Cc1nc(NCc2cccc(-c3cc4ccccc4n3S(=O)(=O)c3ccccc3)c2)c2ncn(CCCO)c2n1 | > 10000 | > 15000 |  | > 10000 | > 10000 | > 10000 | 1800 | 9000 | > 50000 |
| Cc1cccc(C)c1-c1cccc(CNc2nc(C#N)nc3c2ncn3CCCO)c1 |  | 270 |  |  |  |  | 1000 | > 15000 |  |
| N#Cc1nc(NCc2cccc(-c3cn(S(=O)(=O)c4ccccc4)c4ccccc34)c2)c2ncn(CCCO)c2n1 | > 10000 | > 15000 | 2000 | > 10000 | > 10000 | > 10000 | 1000 | 2000 | > 50000 |
| N#Cc1nc(NCc2cccc(-c3ccc4cc[nH]c4c3)c2)c2ncn(CCCO)c2n1 | > 10000 | 240 | 800 | > 10000 | > 10000 | > 10000 | 460 | 260 |  |
